Experimental data reported in patent publication US20260217748A1, “IBOGAINE AND N[…] AND METHODS OF USE” (Atai Therapeutics, Inc., priority 2022, published 2026).
≈ marks a conversion by molar mass, not a printed value.

Tests used:
hERG = hERG (Homo sapiens, UniProt Q12809); test: hERG Binding assay
SERT = SERT (Homo sapiens, UniProt P31645); test: SERT Cellular Functional assay; format: cell-based
Chrom logD = format: physicochemical
Microsome half-life RLM = format: in vitro ADME; conditions: rat, liver microsomes
PBS solubility = format: physicochemical; conditions: aqueous buffer

Chain of SERT (P31645 whole entry, species assumed): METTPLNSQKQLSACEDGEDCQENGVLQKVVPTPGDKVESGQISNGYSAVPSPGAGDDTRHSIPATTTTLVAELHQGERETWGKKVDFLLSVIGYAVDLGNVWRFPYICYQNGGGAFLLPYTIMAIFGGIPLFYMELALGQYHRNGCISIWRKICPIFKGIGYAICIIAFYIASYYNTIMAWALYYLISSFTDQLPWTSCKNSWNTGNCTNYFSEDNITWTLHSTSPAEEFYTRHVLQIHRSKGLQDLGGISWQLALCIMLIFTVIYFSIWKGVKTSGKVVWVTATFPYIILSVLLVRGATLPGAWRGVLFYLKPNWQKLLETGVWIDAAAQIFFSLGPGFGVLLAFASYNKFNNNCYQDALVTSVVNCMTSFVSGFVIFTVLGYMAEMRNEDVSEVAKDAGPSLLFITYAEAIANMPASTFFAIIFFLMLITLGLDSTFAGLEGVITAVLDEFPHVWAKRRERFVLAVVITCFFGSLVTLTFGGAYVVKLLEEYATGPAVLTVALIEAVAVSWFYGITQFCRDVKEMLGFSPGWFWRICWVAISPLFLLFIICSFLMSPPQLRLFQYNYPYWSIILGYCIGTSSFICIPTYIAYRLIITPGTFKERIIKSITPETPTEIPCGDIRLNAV
Chain of hERG (Q12809 whole entry): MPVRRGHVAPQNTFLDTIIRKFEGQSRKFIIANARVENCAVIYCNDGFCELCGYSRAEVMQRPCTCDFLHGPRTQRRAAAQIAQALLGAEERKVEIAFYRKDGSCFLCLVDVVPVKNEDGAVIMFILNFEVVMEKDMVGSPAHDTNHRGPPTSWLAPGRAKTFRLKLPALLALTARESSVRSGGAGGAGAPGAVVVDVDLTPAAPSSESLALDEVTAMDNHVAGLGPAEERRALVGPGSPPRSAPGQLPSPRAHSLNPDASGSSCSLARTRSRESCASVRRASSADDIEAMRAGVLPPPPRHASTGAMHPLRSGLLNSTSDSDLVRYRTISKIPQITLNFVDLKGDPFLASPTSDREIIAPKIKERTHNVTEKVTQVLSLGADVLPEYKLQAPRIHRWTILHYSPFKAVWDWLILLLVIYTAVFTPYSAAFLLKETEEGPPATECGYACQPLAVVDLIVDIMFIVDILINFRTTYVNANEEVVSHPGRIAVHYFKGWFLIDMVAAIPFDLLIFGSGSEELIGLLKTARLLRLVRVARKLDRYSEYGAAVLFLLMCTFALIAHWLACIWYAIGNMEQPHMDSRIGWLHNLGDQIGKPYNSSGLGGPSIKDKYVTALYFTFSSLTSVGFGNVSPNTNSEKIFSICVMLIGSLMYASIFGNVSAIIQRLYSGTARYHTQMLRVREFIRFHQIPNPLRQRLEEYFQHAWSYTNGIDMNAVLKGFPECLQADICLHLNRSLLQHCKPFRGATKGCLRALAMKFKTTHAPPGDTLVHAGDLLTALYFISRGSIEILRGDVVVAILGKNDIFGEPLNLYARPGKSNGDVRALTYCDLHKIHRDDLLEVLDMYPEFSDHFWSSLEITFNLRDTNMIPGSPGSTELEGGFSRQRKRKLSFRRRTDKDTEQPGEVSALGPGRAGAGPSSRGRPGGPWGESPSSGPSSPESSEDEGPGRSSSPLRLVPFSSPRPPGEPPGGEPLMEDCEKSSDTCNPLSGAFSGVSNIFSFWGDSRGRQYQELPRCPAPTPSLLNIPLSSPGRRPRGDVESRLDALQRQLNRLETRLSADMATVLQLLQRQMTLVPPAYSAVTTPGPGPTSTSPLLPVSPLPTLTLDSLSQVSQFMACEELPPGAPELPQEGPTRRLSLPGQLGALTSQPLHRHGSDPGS

For `CC[C@H]1CC2C[C@H]3c4[nH]c5ccc(OC(C)OC)cc5c4CC[N@@](C2)C13` (stereo partly drawn) [Compound 3, (6R,7S,9S,11S)-7-ethyl-2-(1-methoxyethoxy)-6,6a,7,8,9,10,12,13-octahydro-5H-6,9-methanopyrido[1′,2′:1,2]azepino[4,5-b]indole], the IC50 (hERG) was greater than 10 µM, the IC50 (SERT) was 11.9 µM and the chromatographic logD (Chrom logD) was 4.9. The half-life (Microsome half-life RLM; +NADPH) was 4 min, the half-life (Microsome half-life RLM; −NADPH) was greater than 200 min and the solubility (PBS solubility) was 245 µM (≈ 86.9 µg/mL).
